Reference: patent US6906205B2, “Spiro and dispiro 1,2,4-trioxolane antimalarials” (Medicines for Malaria Venture MMV, priority 2002, dated 2005)
≈ marks a conversion by molar mass, not a printed value.

How the values were obtained:
[1] = system: ANKA strain of Plasmodium berghei; experiment: single dose ED50/ED90/ED99 determinations in infected mice; assay type: in vivo; conditions: single dose po in SSV, mice, percent reduction in parasitemia on day three post-infection
Procedure: In the single dose ED50/ED90/ED99 determinations, Moro SPF or NMRI mice (group of three) infected with the ANKA strain of Plasmodium berghei were treated on day one post-infection. […] The SSV consists of 0.5% w/v CMC, 0.5% v/v benzyl alcohol, 0.4% v/v Tween 80, and 0.9% w/v sodium chloride in water. Antimalarial activity was measured by percent reduction in parasitemia on day three post-infection. The ED50/ED90 values were calculated by nonlinear fitting.

[2] = system: ANKA strain of P. berghei; experiment: single dose STI in vivo screen in infected mice; parameters: species or system Plasmodium berghei; conditions: for Survival (days) SSVpo: single po dose in SSV; for Survival (days) SSVpo / Survival (days) po / Survival (days) sc: untreated control 5.6 ± 0.3; for Activity (%) po / Activity (%) sc / Activity (%) SSVpo: percent reduction in parasitemia day 3 post-infection, mice; for Activity (%) po / Survival (days) po: single 10 mg/kg po in 3% ethanol and 7% Tween 80; for Activity (%) sc / Survival (days) sc: single 10 mg/kg sc in 3% ethanol and 7% Tween 80; for Activity (%) SSVpo: single po dose in standard suspending vehicle (SSV)
How it was run: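 Groups of 3-5 Moro SPF or NMRI mice infected with the ANKA strain of P. berghei received a single dose of trioxolane on day one post-infection. The compound was given in 3% ethanol and 7% Tween 80 or in SSV (0.5% w/v CMC, 0.5% v/v benzyl alcohol, 0.4% v/v Tween 80, 0.9% w/v sodium chloride in water). Antimalarial activity was scored as percent reduction in parasitemia on day three and as survival time versus untreated controls. Survival to day 30 counted as cure.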

[3] = system: Schistosoma mansoni 21-day-old schistosomules; experiment: effect on 21-day-old schistosomules in mice; assay type: in vivo; conditions: single 200 mg/kg per os, female mice
Procedure: All groups were killed 4 weeks after treatment and the liver and intestine were removed and separated. The liver and intestine were compressed and alive male and female worms could be seen and counted. The effect of the compounds was evaluated by mean total and female worm burden.

P. berghei ANKA strain [4] = experiment: treatment: 3x3 mg/kg and 3x1 mg/kg po divided doses in infected mice; assay type: in vivo, Plasmodium berghei; conditions: for Activity (%) p.o. SSV: percent reduction of parasitemia day 4
Procedure: (§1) Moro NMRI male mice (Fü Albino specific pathogen free) weighing 18±2 g were infected intravenously (i.v.) with 2×10^7 P. berghei ANKA strain-infected erythrocytes from donor mice on day 0 of the experiment. From donor mice with circa 30% parasitemia, heparinized blood was taken and diluted in physiological saline to 10^8 parasitized erythrocytes per ml. An aliquot (0.2 ml) of this suspension was injected i.v. into experimental and control groups of mice. In untreated control mice, parasitemia rose regularly to 40 to 50% by day 3 post-infection and 70 to 80% by day 4 post-infection. The mice died between days 5 and 7 post-infection. Throughout the experiments, mice were kept in groups of three or five animals in Makrolon type II cages in an air-conditioned animal room at 22 to 23° C. A diet with p-aminobenzoic acid (PABA) of 45 mg (NAFAG FUTTER© food N^o 9009 PAB-45) per kg of body weight, and tap water is available ad libitum.
(§2) OZ compounds were prepared at an appropriate concentration, either as a solution or a suspension containing SSV (0.5% w/v CMC, 0.5% v/v benzyl alcohol, 0.4% v/v Tween 80, and 0.9% w/v sodium chloride in water). They were administered per os (p.o.) in a total volume of 0.01 ml per gram of mouse. The activity of the compound was determined by a variety of methods outlined in subsequent sections. Survival time was also recorded, and survival to day 30 post-infection was considered to be a cure.
The second experiment consists of administration of divided 3×3 mg/kg and 3×1 mg/kg po doses administered on days 1, 2, and 3 post-infection. On day 4 post-infection, blood smears of all animals were prepared and stained with Giemsa. Parasitemia was determined microscopically, and the difference between the mean value of the control group (taken as 100%) and those of the experimental groups was calculated and expressed as percent reduction. Compounds were administered orally in the SSV vehicle.

P. berghei ANKA strain [5] = experiment: treatment: 3x10 mg/kg p.o. divided dose vs 1x30 mg/kg po single dose in infected mice; assay type: in vivo, Plasmodium berghei; conditions: for Cures: survival to day 30 post-infection = cure, cured/treated mice; for Survival (days) p.o. SSV / Activity (%) p.o. SSV: 3 × 10 mg/kg days 1, 2, 3 post-infection; for Activity (%) p.o. SSV: percent reduction of parasitemia day 4
Procedure: Moro NMRI male mice (Fü Albino specific pathogen free) weighing 18±2 g were infected intravenously (i.v.) with 2×10^7 P. berghei ANKA strain-infected erythrocytes from donor mice on day 0 of the experiment. From donor mice with circa 30% parasitemia, heparinized blood was taken and diluted in physiological saline to 10^8 parasitized erythrocytes per ml. An aliquot (0.2 ml) of this suspension was injected i.v. into experimental and control groups of mice. […] Throughout the experiments, mice were kept in groups of three or five animals in Makrolon type II cages in an air-conditioned animal room at 22 to 23° C.
They were administered per os (p.o.) in a total volume of 0.01 ml per gram of mouse. The activity of the compound was determined by a variety of methods outlined in subsequent sections. Survival time was also recorded, and survival to day 30 post-infection was considered to be a cure.
The first experiment conducted consisted of administration of a divided 3×10 mg/kg p.o. dose administered on days 1, 2, and 3 post-infection vs. a single 1×30 mg/kg po dose administered on day 1 post-infection. On day 4 post-infection, blood smears of all animals were prepared and stained with Giemsa. […] Compounds were administered orally in the SSV vehicle.

[6] = system: P. falciparum K1 strain (Thailand resistant to chloroquine); experiment: semiautomated microdilution assay, [3H]-hypoxanthine incorporation, K1 strain; assay type: cell-based, Plasmodium falciparum; conditions: K1 strain, 72 h incubation
How it was run: (§3)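 IC50 values come from logit regression of semiautomated microdilution data obtained on intraerythrocytic parasites drawn from asynchronous cultures.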

[7] = system: Schistosoma mansoni adult schistosomes (49-day-old); experiment: effect on adult schistosomes (49-day-old) in mice; assay type: in vivo; conditions: for % reduction of adult worms growth at day 49 after per os application of 400 mg/kg, TWR (%) / adult worms at day 49, per os 400 mg/kg, DEAD WORM (%): single 400 mg/kg per os
Procedure: Mice were infected with 100 Schistosoma mansoni cercariae […]. Each group was treated per os with OZ compounds at single doses of 200, 400, and 600 mg/kg. […] All groups were killed 4 weeks after treatment and the liver and intestine were removed and separated. The liver and intestine were compressed and alive male and female worms could be seen and counted.

[8] = system: P. falciparum NF54 strain (sensitive to standard antimalarials); experiment: semiautomated microdilution assay, [3H]-hypoxanthine incorporation, NF54 strain; assay type: cell-based, Plasmodium falciparum; conditions: NF54 strain, 72 h incubation
How it was run: as §3

P. berghei ANKA strain [9] = experiment: prophylactic activity, single 100 mg/kg po dose before infection; assay type: in vivo, Plasmodium berghei; conditions: for Prophylactic Activity (%): reduction of parasitemia day 3 post-infection
Procedure: as §1, §2
Prophylactic activities of the compounds were compared after administering po single dose of 100 mg/kg to different groups of five animals at various times before infection. All groups including an untreated control group, were then infected at the same time. Parasitemia was determined for each animal on day 3 post-infection, and percent of reduction of the level of parasitemia compared to levels for animals given no drug is determined.

[10] = 3 × 1 mg/kg days 1, 2, 3 post-infection
[11] = 3 × 3 mg/kg days 1, 2, 3 post-infection

Row | SMILES | ED90 [1] [mg/kg] | ED99 [1] [mg/kg] | Survival (days) SSVpo [2] [days] | % reduction of schistosomule growth at day 21 after per os application of 200 mg/kg, TWR (%) [3] [%] | Survival (days) p.o. SSV (P. berghei ANKA strain [4]; [10]) [days] | Activity (%) p.o. SSV (P. berghei ANKA strain [4]; [10]) [%] | Survival (days) p.o. SSV (P. berghei ANKA strain [4]; [11]) [days] | Activity (%) p.o. SSV (P. berghei ANKA strain [4]; [11]) [%] | % reduction of schistosomule growth at day 21 after per os application of 200 mg/kg, FWR (%) [3] [%] | IC50 (ng/ml) K1 [6] [ng/mL] | % reduction of adult worms growth at day 49 after per os application of 400 mg/kg, TWR (%) [7] [%] | adult worms at day 49, per os 400 mg/kg, DEAD WORM (%) [7] [%] | IC50 (ng/ml) NF54 [8] [ng/mL] | also measured
1 | NC[C@H]1CC[C@]2(CC1)OOC1(O2)C2CC3CC(C2)CC1C3 (stereo partly drawn) [OZ209] | 1.4 | 3.0 | 10.0 | 85 |  |  |  |  |  |  |  |  |  | activity (percent reduction of parasitemia) (P. berghei ANKA strain [4]; 3×1 mg/kg po on days 1, 2, 3 post-infection, SSV): greater than 99%
2 | CCN(CC)CCCC(C)Nc1ccnc2cc(Cl)ccc12 (stereo not drawn) [CQ, chloroquine, reference compound] |  | 5.9 |  |  |  |  |  |  |  |  |  |  |  | Cures (P. berghei ANKA strain [5]; 1 × 30 mg/kg): 0/5; Cures (P. berghei ANKA strain [5]; 3 × 10 mg/kg): 0/5
3 | Cc1ccc(S(=O)(=O)O)cc1.NC1CCC(NC(=O)CC2CCC3(CC2)OOC2(O3)C3CC4CC(C3)CC2C4)CC1 (stereo not drawn) [compound 315] |  |  |  |  | 12.2 | 81 | 22 | 99.99 |  |  |  |  |  | Survival (days) p.o. SSV (P. berghei ANKA strain [5]): >30 days; Activity (%) p.o. SSV (P. berghei ANKA strain [5]): 100%
4 | CC(C)(O)C[C@H]1CC[C@]2(CC1)OOC1(O2)C2CC3CC(C2)CC1C3 (stereo partly drawn) [OZ205] | 3.3 | 6.0 | 8.7 | 84 |  |  |  |  | 83 | 1.5 (≈ 4.46 nM) | 0 | 12 | 2.0 (≈ 5.94 nM) | ED50 [1]: 1.6 mg/kg; Activity (%) po [2]: 99.96%; Activity (%) sc [2]: 99.96%; Activity (%) SSVpo [2]: 99.94%; Survival (days) po [2]: 10.0 days; Survival (days) sc [2]: 9.7 days
5 | CS(=O)(=O)O.c1cc(OCC2CCC3(CC2)OOC2(O3)C3CC4CC(C3)CC2C4)ccn1 (stereo not drawn) [compound 301] |  |  |  |  | 8.8 | 58 | 23 | 100 |  |  |  |  |  | Survival (days) p.o. SSV (P. berghei ANKA strain [5]): >30 days; Activity (%) p.o. SSV (P. berghei ANKA strain [5]): 100%
6 | O=C(O)CC1CCC2(CC1)OOC1(O2)C2CC3CC(C2)CC1C3 (stereo not drawn) [OZ78] | 9.1 | 17 | 7.0 | 82 |  |  |  |  | 87 | 24 (≈ 74.4 nM) | 0 | 17 | 42 (≈ 130 nM) | Activity (%) po [2]: 94%; Activity (%) sc [2]: 79%; Activity (%) SSVpo [2]: 97%; Survival (days) po [2]: 8.7 days; Survival (days) sc [2]: 6.7 days; % reduction of adult worms growth at day 49 after per os application of 200 mg/kg, TWR (%) ([7]; single 200 mg/kg per os): 24%; adult worms at day 49, per os 200 mg/kg, DEAD WORM (%) ([7]; single 200 mg/kg per os): 29%; % reduction of adult worms growth at day 49 after per os application of 600 mg/kg, TWR (%) ([7]; single 600 mg/kg per os): 0%; adult worms at day 49, per os 600 mg/kg, DEAD WORM (%) ([7]; single 600 mg/kg per os): 14%
7 | NCC(=O)NC[C@H]1CC[C@]2(CC1)OO[C@]1(O2)C2CC3CC(C2)CC1C3 [OZ271] |  |  |  | 88 |  |  |  |  | 86 | 0.36 (≈ 1.03 nM) | 0 | 6 | 0.29 (≈ 0.827 nM) | Survival (days) 10 mg/kg SSV po ([2]; single 10 mg/kg po in SSV): 8.7 days; duration of prophylactic protection (P. berghei ANKA strain [9]; single 100 mg/kg po before infection): 3 days
8 | CC(C)(N)C(=O)NCC1CCC2(CC1)OOC1(O2)C2CC3CC(C2)CC1C3 (stereo not drawn) [compound 281] |  |  |  |  | 13 | 92 | 12.4 | 100 |  |  |  |  |  | Prophylactic Activity (%) (P. berghei ANKA strain [9]; single 100 mg/kg po 24 h before infection): 99.23%; Prophylactic Activity (%) (P. berghei ANKA strain [9]; single 100 mg/kg po 48 h before infection): 45%; Prophylactic Activity (%) (P. berghei ANKA strain [9]; single 100 mg/kg po 72 h before infection): 8%; Prophylactic Activity (%) (P. berghei ANKA strain [9]; single 100 mg/kg po at 0 h): 100%
